In patent US11298339B2 (priority 2017, dated 2022):

Legend:
Assay type in all cases: in vivo, C57BL/6J mice
HBV [1] = assay: Compound 1 alone in chronic HBV infection mouse model (high-pressure tail vein injection of pAAV-HBV1.2 plasmid)
Procedure: Male C57/B6 mice (6-8 weeks of age, body weight 20 f 2 g) were selected to establish a high-pressure tail vein injection mouse model, in which the tail of mice was wiped with 75% alcohol, and then irradiated with a far-infrared physiotherapy device for 2 to 3 minutes so that the tail vein of mice was turgid and clearly visible. […] Each mouse was injected with 10 μg of pAAV/HBV1.2 plasmid, and the amount of injection liquid (PBS) was 10% of body weight (2 mL/20 g). On the 14th day after the injection, blood was collected to detect HBsAg, and the successfully modeled mice with HBsAg>500 IU/ml were selected for further experiments (Huang, Wu et al. 2006; Chou, Chien et al. 2015). […] There were 6-8 mice in each group, which were administered once a week for 4 consecutive times and observed for 7 weeks.
After the mice serum were diluted 20-fold with PBS, the HBsAg and HBeAg titers of the serum were detected by using Abbott i2000SR microparticle chemiluminescence automatic detector. The serum HBV DNA was extracted by QIAamp DNA Mini Kit (Qiagen), the HBV DNA level in serum was quantified by Realtime-PCR (LightCycler 480, Roche) using DNA Amplification SYBR Green Kit (Roche), and the HBV plasmid PSM2 products with a series of concentration gradients were used as standards. The HBV primers used in this experiment were synthesized by Invitrogen (Shanghai) Trading Co., Ltd., and the primer sequences were as follows: HBV Hope-F (5′ to 3′ […]) and HBV Hope-R (5′ to 3′ […]). The liver tissues of mice were subjected to conventional formalin-fixation and paraffin-embedding, the resultant 4 μm sections were baked at 65° C. for 2 h, dehydrated with conventional ethanol gradients, infiltrated with hydrogen peroxide at room temperature for 30 min, washed with PBS for 5 min/time, 3 times in total, and blocked at room temperature for 1 h. After rabbit-anti-human HBcAg (B0586, DAKO) was added and incubated in a wet box at room temperature for 1 h, a GTvision III immunohistochemical detection kit of anti-rabbit anti-mice general type (GK50075, Shanghai Gene Technology Co., Ltd.) was used for incubation of secondary antibodies and development of color, and pictures at 200× magnification were taken with a normal optical upright microscope. 60 mg of liver tissue homogenate was weighed, added with 900 μl of lysate (50 mmol/L Tris-HCl PH 7.5+1 mmol/L EDTA), placed on ice, and after all samples were processed, 5 μl of […] was added and lysis was performed on ice, and then HBV DNA in liver tissue was extracted with phenol/chloroform, dissolved by adding 15 μl of RNase free water, run on a 1% agarose gel, transferred to membrane; then a full-length HBV probe labeled with digoxin was added, stood overnight at 46° C., subjected to DIG Washing Buffer once for 5 min, added with Anti-Digoxigenin-Ap Fab fragment (11093274910, Roche), and Image Quant LAS 4000mini was used for exposure and detection.

HBV [2] = assay: Compound 1 in combination with TDF in pAAV-HBV1.2 high-pressure tail vein injection mouse model; conditions: Compound 1 10 mg/kg i.v. weekly x4; TDF 53 mg/kg gavage daily 10 days; observed 7 weeks
Procedure: After the mice serum were diluted 20-fold with PBS, the HBsAg and HBeAg titers of the serum were detected by using Abbott i2000SR microparticle chemiluminescence automatic detector. The serum HBV DNA was extracted by QIAamp DNA Mini Kit (Qiagen), the HBV DNA level in serum was quantified by Realtime-PCR (LightCycler 480, Roche) using DNA Amplification SYBR Green Kit (Roche), and the HBV plasmid PSM2 products with a series of concentration gradients were used as standards. The HBV primers used in this experiment were synthesized by Invitrogen (Shanghai) Trading Co., Ltd., and the primer sequences were as follows: HBV Hope-F (5′ to 3′ […]) and HBV Hope-R (5′ to 3′ […]). The liver tissues of mice were subjected to conventional formalin-fixation and paraffin-embedding, the resultant 4 μm sections were baked at 65° C. for 2 h, dehydrated with conventional ethanol gradients, infiltrated with hydrogen peroxide at room temperature for 30 min, washed with PBS for 5 min/time, 3 times in total, and blocked at room temperature for 1 h. […]

[3] = Liver damage after Compound 1 injection in HBV-infected mice (serum ALT/AST, HE staining of liver sections)
Description: (§1) Chronic HBV infection mouse models were established by high-pressure tail vein injection of pAAV-HBV1.2 plasmid or recombinant virus rAAV8-1.3HBV injection of C57BL/6J mice (6 to 8 weeks of age, weight 20 f 2 g). […] Glutamic-oxalacetic transaminase (AST/GOT) kit (Nanjing Jiancheng, C010-2) and glutamic-pyruvic transaminase (ALT/GPT) kit (Nanjing Jiancheng, C009-2) were used to detect serum ALT and AST levels. Western blot was used to detect the expression of cIAPs molecules in liver tissues, and β-actin was used as a control. Intrahepatic inflammation and hepatocyte necrosis were detected by HE staining of liver tissue sections.

cIAP2 = target: T1, cIAP2 (Mus musculus, UniProt O08863); assay: Western blot of cIAPs molecules in liver tissue after Compound 1 injection; conditions: 10 mg/kg i.v.
T1 construct: Western blot was used to detect the expression of cIAPs molecules in liver tissues; from tissue; host or cells: liver tissue of C57BL/6J mice (HBV model, pAAV-HBV1.2)
Description: as §1

[4] = test system: HBcAg-positive liver cells; assay: Apoptosis of HBV-infected liver cells, HBcAg immunofluorescence and Tunnel double staining, rAAV8-HBV1.3 virus injection mouse model; conditions: 20 mg/kg i.v.; 12 h after injection
Description: as §1

[5] = test system: HBV-specific T cell response; assay: HBV immune response in mice: liver lymphocyte counts and HBV-specific T cell response (flow cytometry, Core93-100 stimulation); conditions: 20 mg/kg once a week x4, 7th week
Procedure: There were 5 to 6 mice in each group, which were administered once a week for four consecutive times, and sacrificed on the 7th week, the mice liver lymphocytes were isolated, and cell counts and flow cytometry were used to detect the expression of CD4 and CD8 molecules in lymphocytes in the liver. The detection of HBV-specific T cell response was performed by using HBV core monopeptide (Core93-100) to stimulate lymphocytes, and the counts of CD4+ and CD8+ T cells that secreted IFNγ, TNFα and IL-2 were detected by flow cytometry cytokine intracellular staining method.

HBV [6] = assay: Compound 1 in combination with IFNα2a in chronic HBV infection mouse model (pAAV-HBV1.2 plus pKCMvint IFNα-2a or control plasmid)
Procedure: One day after modeling, the mice were divided into 4 groups. […] There were 5 mice in each group (except Group D that included 7 mice), the administration was performed for consecutive 3 times, i.e., on the day 1 after modeling, and on the days 7 and 14 after modeling; blood was collected once at orbital margin one day before the administration, and serum HBsAg/HBeAg levels were detected using Roche 601 instrument.

HBV [7] = assay: Comparison of Compound 1 and Birinapant in chronic HBV infection mouse model (pAAV-HBV1.2 plasmid); conditions: for proportion of mice with serum HBsAg levels below the lower limit of detection: after 4 weeks of administration; for serum HBsAg level (individual): after one week of drug treatment
Procedure: Among them, there were 7 mice in each of Group A and Group B, and 6 mice in Group C. Compound 1 and Birinapant were administered once a week for five consecutive weeks. Blood was collected at orbital margin each week before the administration, and the HBsAg/HBeAg levels in supernatant were detected using Roche 601 instrument.

HBV [8] = assay: Compound 1 in combination with anti-PD1 antibody in chronic HBV infection mouse model (pAAV-HBV1.2 plasmid)
Description: Among them, there were 7 mice in each group.

HBV [9] = assay: Compound 1 and SF18 in mouse model established by rAAV8-HBV1.3 (ayw) virus tail vein injection; conditions: 20 mg/kg i.v.
Procedure: Among them, there were 3 mice in each group. Administration was carried out for consecutive four weeks, blood was collected at orbital margin once per week, and HBsAg/HBeAg levels in supernatant were detected by Roche 601 instrument.

[10] = 20 mg/kg i.v. once a week x4, on the 5th week, faster than 10 mg/kg group
[11] = Compound 1 injection groups (10 and 20 mg/kg i.v., once a week x4), up to the 7th week
[12] = 10 mg/kg i.v., 12, 24, 48 hours after injection
[13] = stimulation with HBV core monopeptide (Core93-100)
[14] = Compound 1 20 mg/kg i.v. once per week, anti-PD1 antibody 200 μg/mice/time i.p. twice per week, five weeks

T1 sequence (O08863 whole entry): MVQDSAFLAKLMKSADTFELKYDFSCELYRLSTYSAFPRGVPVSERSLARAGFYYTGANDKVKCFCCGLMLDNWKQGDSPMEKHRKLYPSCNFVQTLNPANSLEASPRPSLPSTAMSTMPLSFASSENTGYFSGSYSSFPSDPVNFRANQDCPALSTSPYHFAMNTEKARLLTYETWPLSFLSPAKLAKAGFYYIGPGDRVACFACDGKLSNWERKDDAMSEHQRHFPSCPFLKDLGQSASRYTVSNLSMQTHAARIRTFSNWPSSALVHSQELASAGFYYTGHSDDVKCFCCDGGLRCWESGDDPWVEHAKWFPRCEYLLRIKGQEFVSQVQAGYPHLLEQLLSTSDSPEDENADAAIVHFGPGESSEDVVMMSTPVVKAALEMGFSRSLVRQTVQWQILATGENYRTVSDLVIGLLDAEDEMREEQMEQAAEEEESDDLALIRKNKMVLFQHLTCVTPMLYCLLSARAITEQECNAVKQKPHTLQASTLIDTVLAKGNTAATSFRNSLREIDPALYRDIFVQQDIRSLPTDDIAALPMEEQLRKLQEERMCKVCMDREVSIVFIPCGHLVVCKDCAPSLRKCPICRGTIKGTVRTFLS

CN[C@@H](C)C(=O)N[C@H]1CN(S(=O)(=O)c2cccc(S(=O)(=O)N3CC[C@H]4CC[C@@H](C(=O)NC(c5ccccc5)c5ccccc5)N4C(=O)[C@@H](NC(=O)[C@H](C)NC)C3)c2)CC[C@H]2CCC(C(=O)NC(c3ccccc3)c3ccccc3)N2C1=O (stereo partly drawn) [Compound 1]
serum HBV DNA (HBV [1]; [10]): completely eliminated | serum HBsAg (HBV [1]; [10]): completely eliminated | HBV replication intermediate in liver tissue (Southern blot) (HBV [1]; 7 weeks after administration, compared with saline group): no HBV replication intermediate was detected | serum HBV DNA (HBV [1]; [11]): below the detection limit | serum HBsAg (HBV [1]; [11]): below the detection limit | HBcAg expression in liver (immunohistochemical staining) (HBV [1]; after 7 weeks of administration): not observed | serum HBsAg clearance rate in comparison with control group (HBV [2]): statistically significant differences | time at which serum ALT returned to normal levels ([3]; 10 mg/kg i.v.): around 48 hours | time at which serum ALT rose to the highest value ([3]; 10 mg/kg i.v.): 12 h | time at which serum AST returned to normal levels ([3]; 10 mg/kg i.v.): around 48 hours | time at which serum AST rose to the highest value ([3]; 10 mg/kg i.v.): 12 h | serum ALT change after injection [3, 12]: transient increase | serum AST change after injection [3, 12]: transient increase | liver tissue HE staining ([3]; 10 mg/kg i.v., 12 hours after injection, vicinity of portal areas, with lymphocyte infiltration): scattered necrotic lesions | intrahepatic inflammation / fulminant hepatitis ([3]; after Compound 1 injection, only transient intrahepatic inflammation): did not cause fulminant hepatitis | time at which inhibition of cIAP2 reached the strongest value (cIAP2): 12 h | inhibitory effect on cIAP2 in liver tissues (Western blot) (cIAP2; 12, 24, 48 h): strong inhibitory effect | apoptosis of HBcAg-positive liver cells [4]: could be induced | count of infiltrated CD4+ T cells in the liver vs control [5]: significantly increased | count of infiltrated CD8+ T cells in the liver vs control [5]: significantly increased | total lymphocyte number in the liver vs normal saline control [5]: significantly higher | counts of CD4+ T cells that secreted IFNγ, TNFα and IL-2 [5, 13]: increased significantly | counts of CD8+ T cells that secreted IFNγ, TNFα and IL-2 [5, 13]: increased significantly | serum HBsAg compared with Group C (IFNα-2a) (HBV [6]; 21st day, P 0.008): decreased significantly | serum HBeAg compared with Group A (saline) (HBV [6]; days 7, 14, 21 (P 0.004 on 7th day, 0.021 on 7th day as printed, 0.001 on 21st day)): statistically significant differences | serum HBsAg compared with Group A (saline) (HBV [6]; days 7, 14, 21 (P 0.010, 0.008, 0.004), Compound 1 10 mg/kg i.v. days 1, 7, 14, IFNα-2a plasmid-expressed): statistically significant differences | clearance effect of HBsAg (overall level) vs saline injection group (HBV [7]; 20 mg/kg i.v. once a week, five weeks): statistically significant difference | proportion of mice with serum HBsAg levels below the lower limit of detection (HBV [7]; 20 mg/kg i.v. once a week): 86% | serum HBsAg level (individual) (HBV [7]; 20 mg/kg i.v.): decreased significantly | serum HBsAg level compared with Brinapant group (HBV [7]; 20 mg/kg i.v., after one week, p=0.035): significantly lower than that of the Brinapant group | clearance effect of HBsAg and HBeAg, overall comparison (HBV [7]; same dosage and mode of administration (20 mg/kg i.v.)): superior to Birinapant | serum HBeAg (individual) compared with Group A (saline) (HBV [8]; 1st and 2nd weeks (P 0.029, 0.009)): statistically significant differences | serum HBeAg compared with Group C (anti-PD1 antibody) (HBV [8]; 1st and 2nd weeks, P week 1 0.016 (Group B), 0.007 (Group D), week 2 0.007, 0.002): decreased more significantly | serum HBeAg level (overall) (HBV [8]; [14]): significantly reduce | serum HBsAg level (overall) (HBV [8]; [14]): significantly reduce | anti-HBV effect (conclusion) (HBV [9]; four weeks): anti-HBV effect

CC[C@H](NC(=O)[C@H](C)NC)C(=O)N1C[C@@H](O)C[C@H]1Cc1c(-c2[nH]c3cc(F)ccc3c2C[C@@H]2C[C@H](O)CN2C(=O)[C@H](CC)NC(=O)[C@H](C)NC)[nH]c2cc(F)ccc12 [Birinapant, reference compound]
proportion of mice with serum HBsAg levels below the lower limit of detection (HBV [7]; 20 mg/kg i.v. once a week): 57% | serum HBsAg level (individual) (HBV [7]; 20 mg/kg i.v.): decreased significantly

CN[C@@H](C)C(=O)N[C@H]1CN(C(=O)Nc2ccc(NC(=O)N3CC[C@H]4CC[C@@H](C(=O)NC(c5ccccc5)c5ccccc5)N4C(=O)[C@@H](NC(=O)[C@H](C)NC)C3)cc2)CC[C@H]2CC[C@@H](C(=O)NC(c3ccccc3)c3ccccc3)N2C1=O [SF18]
deaths during administration (HBV [9]; 3 mice in the group): one mice died on the 2nd week and 4th week | anti-HBV effect (conclusion) (HBV [9]; four weeks): stronger than that of Compound 1 | decrease rate of HBeAg in mice serum (HBV [9]; four weeks): significantly faster than those of the Compound 1 group | decrease rate of HBsAg in mice serum (HBV [9]; four weeks): significantly faster than those of the Compound 1 group
